Results as given in patent publication US20210401826A1, “ABUSE DETERRENT PHARMACEUTICAL FORMULATIONS” (AVEKSHAN, LLC., priority 2018, published 2021).
Several values for one entry are separate records, joined by “and”; a condition that tells them apart may be missing. Equal entries are not always repeated. Structures can show the parent of a compound that is named as a salt. Where two headings read alike, the source gives them in different places.

How the values were obtained:
[1] = Solubility study of naltrexone and methylphenidate in common solvents and household items (visual examination); assay type: physicochemical
Experimental: The solubility of naltrexone and methylphenidate was evaluated in various commonly available solvents and household items, including water, cola soft drinks, ethanol, vinegar, nail polish remover, toluene, turpentine, and baking soda solution (see Table 1). The solubility results were determined by visual examination of each solution after warming and several hours of mixing. The solubility results are presented below in Table 1.

[2] = Separation of naltrexone and methylphenidate from a 1:1 mixture using acetone; assay type: physicochemical; settings: for % NTX / MPH Recovered / NTX / MPH / mg NTX / MPH Recovered: Prep. A and B
Experimental: In this example, equal amounts of methylphenidate and naltrexone (20 mg each) were combined and then separated. To separate the methylphenidate from the naltrexone, only materials representing commonly available household items were used, e.g., acetone (nail polish remover), water, small glass containers, a hot plate and a coffee filter. Three sources of acetone were used, all of which are available to the public, including lab grade acetone, nail polish remover, and acetone heavy-duty cleaner.
Conditions for the separation, such as acetone volume and extraction time, were tested and adjusted.

[3] = 0.2% baking soda solution, aqueous buffer, thermodynamic from solid, read-out: Solubility
[4] = 25:75 acetone:water, aqueous with cosolvent or surfactant or cyclodextrin, thermodynamic from solid, 25:75 Acetone:H2O, read-out: Solubility
[5] = 40% ethanol, aqueous with cosolvent or surfactant or cyclodextrin, thermodynamic from solid, read-out: Solubility
[6] = 50:50 acetone:water, aqueous with cosolvent or surfactant or cyclodextrin, thermodynamic from solid, 50:50 Acetone:H2O, read-out: Solubility
[7] = Coca-Cola, aqueous buffer, thermodynamic from solid, read-out: Solubility
[8] = DMF, organic solvent or mixture, thermodynamic from solid, read-out: Solubility
[9] = DMSO, organic solvent or mixture, thermodynamic from solid, read-out: Solubility
[10] = acetone, organic solvent or mixture, thermodynamic from solid, read-out: Solubility
[11] = acetonitrile, organic solvent or mixture, thermodynamic from solid, read-out: Solubility
[12] = aqueous buffer, thermodynamic from solid, 0.1M Sodium Hydroxide, read-out: Solubility
[13] = canola oil, oil or lipid, thermodynamic from solid, read-out: Solubility
[14] = ethanol, organic solvent or mixture, thermodynamic from solid, read-out: Solubility
[15] = ethyl acetate, organic solvent or mixture, thermodynamic from solid, read-out: Solubility
[16] = hexanes, organic solvent or mixture, thermodynamic from solid, read-out: Solubility
[17] = isopropyl alcohol, organic solvent or mixture, thermodynamic from solid, read-out: Solubility
[18] = methanol, organic solvent or mixture, thermodynamic from solid, read-out: Solubility
[19] = methyl ethyl ketone, organic solvent or mixture, thermodynamic from solid, read-out: Solubility
[20] = mineral spirits, organic solvent or mixture, thermodynamic from solid, read-out: Solubility
[21] = naphtha, organic solvent or mixture, thermodynamic from solid, read-out: Solubility
[22] = simulated gastric fluid, thermodynamic from solid, 0.1M Hydrochloric Acid, read-out: Solubility
[23] = toluene, organic solvent or mixture, thermodynamic from solid, read-out: Solubility
[24] = turpentine, organic solvent or mixture, thermodynamic from solid, read-out: Solubility
[25] = vinegar, aqueous buffer, thermodynamic from solid, read-out: Solubility
[26] = water, thermodynamic from solid, read-out: Solubility
[27] = xylene, organic solvent or mixture, thermodynamic from solid, read-out: Solubility
[28] = Acetone Cleaner 20 mL, listed as NTX, HCl
[29] = Acetone Cleaner 50 mL, listed as NTX, HCl
[30] = Lab Grade Acetone 20 mL, listed as NTX, HCl
[31] = Nail Polish Remover 20 mL, listed as NTX, HCl
[32] = Nail Polish Remover 50 mL, listed as NTX, HCl
[33] = Acetone Cleaner 20 mL, listed as MPH, HCl
[34] = Lab Grade Acetone 20 mL, listed as MPH, HCl
[35] = Lab Grade Acetone 50 mL, listed as MPH, HCl
[36] = Nail Polish Remover 20 mL, listed as MPH, HCl
[37] = Nail Polish Remover 50 mL, listed as MPH, HCl

SMILES: O=C1CC[C@@]2(O)[C@H]3Cc4ccc(O)c5c4[C@@]2(CCN3CC2CC2)[C@H]1O5 [Naltrexone HCl]
- solubility [1, 3]: > 1000 µg/mL
- solubility [1, 4]: > 1000 µg/mL
- solubility [1, 5]: > 1000 µg/mL
- solubility [1, 6]: > 1000 µg/mL
- solubility ([1]; Acetone, HCl): <100 µg/mL
- solubility [1, 7]: > 1000 µg/mL
- solubility [1, 8]: > 1000 µg/mL
- solubility [1, 9]: > 1000 µg/mL
- solubility [1, 10]: < 100 µg/mL
- solubility [1, 11]: 100 to 500 µg/mL
- solubility [1, 12]: > 1000 µg/mL
- solubility [1, 13]: < 100 µg/mL
- solubility [1, 14]: > 1000 µg/mL
- solubility [1, 15]: < 100 µg/mL
- solubility [1, 16]: < 100 µg/mL
- solubility [1, 17]: < 100 µg/mL
- solubility [1, 18]: > 1000 µg/mL
- solubility [1, 19]: < 100 µg/mL
- solubility [1, 20]: < 100 µg/mL
- solubility [1, 21]: < 100 µg/mL
- solubility [1, 22]: > 1000 µg/mL
- solubility [1, 23]: < 100 µg/mL
- solubility [1, 24]: < 100 µg/mL
- solubility [1, 25]: > 1000 µg/mL
- solubility [1, 26]: > 1000 µg/mL
- solubility [1, 27]: < 100 µg/mL
- % NTX / MPH Recovered [2, 28]: 5.1% and 8.5%
- NTX / MPH [2, 28]: 0.05 mg/mL and 0.09 mg/mL
- mg NTX / MPH Recovered [2, 28]: 1.02 mg and 1.7 mg
- NTX / MPH ([2]; Acetone Cleaner 50 mL): 0.13 mg/mL
- % NTX / MPH Recovered [2, 29]: 13.4% and 12.5%
- mg NTX / MPH Recovered [2, 29]: 2.68 mg and 2.5 mg
- % NTX / MPH Recovered [2, 30]: 5.2% and 6.5%
- NTX / MPH [2, 30]: 0.05 mg/mL and 0.06 mg/mL
- mg NTX / MPH Recovered [2, 30]: 1.04 mg and 1.3 mg
- % NTX / MPH Recovered [2, 31]: 5.6% and 8.6%
- NTX / MPH [2, 31]: 0.06 mg/mL and 0.09 mg/mL
- mg NTX / MPH Recovered [2, 31]: 1.12 mg and 1.72 mg
- NTX / MPH ([2]; Nail Polish Remover 50 mL, 20 mg each drug combined, listed as NTX, HCl): 0.14 mg/mL and 0.15 mg/mL
- % NTX / MPH Recovered [2, 32]: 13.8% and 15.4%
- mg NTX / MPH Recovered [2, 32]: 2.76 mg and 3.08 mg

SMILES: COC(=O)C(c1ccccc1)C1CCCCN1 (stereo not drawn) [Methylphenidate HCl]
- solubility [1, 3]: > 1000 µg/mL
- solubility [1, 4]: > 1000 µg/mL
- solubility [1, 5]: > 1000 µg/mL
- solubility [1, 6]: > 1000 µg/mL
- solubility ([1]; Acetone, HCl): >1000 µg/mL
- solubility [1, 7]: > 1000 µg/mL
- solubility [1, 8]: > 1000 µg/mL
- solubility [1, 9]: > 1000 µg/mL
- solubility [1, 10]: > 1000 µg/mL
- solubility [1, 11]: > 1000 µg/mL
- solubility [1, 12]: > 1000 µg/mL
- solubility [1, 13]: < 100 µg/mL
- solubility [1, 14]: > 1000 µg/mL
- solubility [1, 15]: 100 to 500 µg/mL
- solubility [1, 16]: 100 to 500 µg/mL
- solubility [1, 17]: > 1000 µg/mL
- solubility [1, 18]: > 1000 µg/mL
- solubility [1, 19]: 500 to 1000 µg/mL
- solubility [1, 20]: < 100 µg/mL
- solubility [1, 21]: < 100 µg/mL
- solubility [1, 22]: > 1000 µg/mL
- solubility [1, 23]: < 100 µg/mL
- solubility [1, 24]: < 100 µg/mL
- solubility [1, 25]: > 1000 µg/mL
- solubility [1, 26]: > 1000 µg/mL
- solubility [1, 27]: < 100 µg/mL
- mg NTX / MPH Recovered ([2]; Acetone Cleaner 20 mL): 15.9 mg
- % NTX / MPH Recovered [2, 33]: 79.5% and 79.7%
- NTX / MPH [2, 33]: 0.79 mg/mL and 0.80 mg/mL
- NTX / MPH ([2]; Acetone Cleaner 50 mL): 0.92 mg/mL
- mg NTX / MPH Recovered ([2]; Acetone Cleaner 50 mL): 18.4 mg
- % NTX / MPH Recovered ([2]; Acetone Cleaner 50 mL, listed as MPH, HCl): 92.0% and 91.8%
- % NTX / MPH Recovered [2, 34]: 76.4% and 73.7%
- NTX / MPH [2, 34]: 0.76 mg/mL and 0.74 mg/mL
- mg NTX / MPH Recovered [2, 34]: 15.3 mg and 14.7 mg
- % NTX / MPH Recovered [2, 35]: 91.5% and 92.4%
- NTX / MPH [2, 35]: 0.91 mg/mL and 0.92 mg/mL
- mg NTX / MPH Recovered [2, 35]: 18.3 mg and 18.5 mg
- mg NTX / MPH Recovered ([2]; Nail Polish Remover 20 mL): 14.6 mg
- % NTX / MPH Recovered [2, 36]: 73.0% and 79.4%
- NTX / MPH [2, 36]: 0.73 mg/mL and 0.79 mg/mL
- mg NTX / MPH Recovered [2, 36]: 15.9 mg
- NTX / MPH ([2]; Nail Polish Remover 50 mL, 20 mg each drug combined, listed as MPH, HCl): 0.91 mg/mL and 0.90 mg/mL
- % NTX / MPH Recovered [2, 37]: 91.4% and 90.1%
- mg NTX / MPH Recovered [2, 37]: 18.3 mg and 18.0 mg
- % of methylphenidate extracted ([2]; depending on the volume of acetone used): 73-92%
